Legend:
Experiment in all cases: Saccharide competition of SP-D binding to BSA-mannan coated plates
iSP-D = molecular target: T1, iSP-D (Homo sapiens, UniProt P35247, D344N/D350N/E309K/INS346GSS/K307Q/V271E)
T1 construct: Full-length recombinant iSP-D was generated based upon the full-length hSP-D cDNA clone; made in house; host or cells: HEK293 (HEK293E, transient transfection)
T1 sequence (P35247 with tags, fused parts or gaps V271E/K307Q/E309K/D344N/INS346GSS/D350N): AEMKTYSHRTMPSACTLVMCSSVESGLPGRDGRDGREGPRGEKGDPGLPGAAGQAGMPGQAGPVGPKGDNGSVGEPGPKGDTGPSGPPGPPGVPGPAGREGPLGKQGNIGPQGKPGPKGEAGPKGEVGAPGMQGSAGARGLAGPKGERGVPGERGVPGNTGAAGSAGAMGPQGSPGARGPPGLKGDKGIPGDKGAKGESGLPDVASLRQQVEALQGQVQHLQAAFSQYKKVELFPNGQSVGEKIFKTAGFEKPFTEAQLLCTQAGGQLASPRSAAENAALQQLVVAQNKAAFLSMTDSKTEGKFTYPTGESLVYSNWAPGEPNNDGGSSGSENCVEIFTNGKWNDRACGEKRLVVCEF

hSP-D = molecular target: T2, hSP-D (Homo sapiens, UniProt P35247)
T2 construct: The full-length recombinant collectins pSP-D and hSP-D were constructed as published; made in house; host or cells: HEK293 (HEK293E, transient transfection)
T2 sequence (P35247 21-375): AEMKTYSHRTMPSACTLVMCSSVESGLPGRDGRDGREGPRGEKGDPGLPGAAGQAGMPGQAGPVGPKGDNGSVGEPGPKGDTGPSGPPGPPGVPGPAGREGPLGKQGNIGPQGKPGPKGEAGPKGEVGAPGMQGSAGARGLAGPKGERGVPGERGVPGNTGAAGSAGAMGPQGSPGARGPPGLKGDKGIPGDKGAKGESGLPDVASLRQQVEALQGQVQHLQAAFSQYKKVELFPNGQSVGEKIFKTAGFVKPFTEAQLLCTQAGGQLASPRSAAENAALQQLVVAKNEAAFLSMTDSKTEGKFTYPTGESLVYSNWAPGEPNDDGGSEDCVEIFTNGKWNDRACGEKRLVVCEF

pSP-D = molecular target: T3, pSP-D (Sus scrofa, UniProt Q9N1X4); design: species or system porcine
T3 sequence (Q9N1X4 21-378): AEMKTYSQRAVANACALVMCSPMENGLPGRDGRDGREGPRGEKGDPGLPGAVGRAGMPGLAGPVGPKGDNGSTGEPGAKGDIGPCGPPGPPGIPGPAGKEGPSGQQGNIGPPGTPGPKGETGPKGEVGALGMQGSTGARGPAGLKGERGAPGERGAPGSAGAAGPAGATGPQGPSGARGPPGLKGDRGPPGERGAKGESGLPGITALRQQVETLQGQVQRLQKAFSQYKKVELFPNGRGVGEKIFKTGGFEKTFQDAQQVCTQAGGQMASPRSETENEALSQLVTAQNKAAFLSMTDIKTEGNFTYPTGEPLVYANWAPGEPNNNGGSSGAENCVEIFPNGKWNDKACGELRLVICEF

## O[C@H]1[C@H](O)[C@@H](O)[C@H](O)[C@@H](O)[C@H]1O [Myo-Inositol, myo-inositol]
iSP-D; ratio of IC50 for inhibition of binding to BSA-mannan
  IC50-value with iSP-D as compared to hSP-D: three times higher

## CC(=O)N[C@@H]1C(O)O[C@H](CO)[C@@H](O)[C@@H]1O (stereo partly shown) [ManNAc, N-acetylmannosamine]
hSP-D
  IC50: 2.2 mM
pSP-D
  IC50: 8 mM
iSP-D
  IC50: 3.1 mM

## OC[C@H]1OC(O)[C@H](O)[C@@H](O)[C@@H]1O (stereo partly drawn) [D-Glucose, D-glucose]
hSP-D
  IC50: 4.6 mM
pSP-D
  IC50: 2.8 mM
iSP-D
  IC50: 7.8 mM

## O=C(CO)[C@@H](O)[C@H](O)[C@H](O)CO [Fructose, fructose]
hSP-D
  IC50: 3.1 mM
pSP-D
  IC50: 2.8 mM
iSP-D
  IC50: 4.8 mM

## O=C[C@H](O)[C@@H](O)[C@@H](O)[C@H](O)CO [D-Galactose, D-galactose]
hSP-D
  IC50: 13.5 mM
pSP-D
  IC50: 6.5 mM
iSP-D
  IC50: 13.6 mM
